The values that follow come from ChEMBL document CHEMBL3507680, “University of Dundee, Gates Library screen for HepG2 cell viability”.

The nature of this series: Human HepG2 cell viability assay in 384 well format. The series is classed as toxicity, cell-based. More on the design: dose 125 nL, time 70.5 hour; cytotoxicity at 70.5 h: concentration not given beside the values. Conditions: HepG2 cells, read-out: Inhibition.
As for `O=C(c1cncs1)N1CCc2[nH]nc(Nc3ccccc3)c2C1`, the cytotoxicity at 70.5 h was -3.16%.

In the case of `CC(C)N1CCC(c2cnc(-c3cncnc3)cn2)CC1`, the cytotoxicity at 70.5 h was 21.3%.

As for `Cc1noc(C)c1CC(=O)N1CC[C@@](C)(O)[C@H](Oc2ccccc2)C1`, the cytotoxicity at 70.5 h is -2.99%.

Consider `CC(=O)NCC(=O)N1CCOCC(Cc2ccc3c(ccn3C)c2)C1` (configuration not stated), for which the cytotoxicity at 70.5 h is -8.14%.

Consider `CNC(=O)C1(Cc2cc(C(C)C)no2)CCN(Cc2ccccn2)C1` (configuration not stated), for which the cytotoxicity at 70.5 h was -0.0563%.

As for `COc1cc(CCC(=O)N2CCC(c3cncc(C)n3)CC2)on1`, the cytotoxicity at 70.5 h was -3.99%.

Turning to `COCC(=O)N1C[C@@H](O)[C@H](N2CCN(c3ccccc3)CC2)C1`, the cytotoxicity at 70.5 h was -0.565%.

Turning to `c1ccc(N2CCC(c3ccncc3)CC2)cc1`, the cytotoxicity at 70.5 h amounted to 5.91%.

As for `c1cncc(N2CCC(c3ccncc3)CC2)c1`, the cytotoxicity at 70.5 h came out at 3.31%.

For `CN(C)C(=O)c1cn[nH]c1C1(C)CCN(c2ncccn2)CC1`, the cytotoxicity at 70.5 h came out at 2.96%.

As for `CN1CCC(C(=O)N2CCC(c3ccc4c(N)n[nH]c4n3)CC2)CC1`, the cytotoxicity at 70.5 h is -0.601%.

On to `O=C(Cc1ccccc1)N1CCC(c2nnc(-c3ccccn3)o2)CC1`, for which the cytotoxicity at 70.5 h worked out at 21.6%.

For the compound `CC1(C(N)=O)CN(CC2CCOCC2)CCO1` (configuration not stated), the cytotoxicity at 70.5 h is 53.2%.

`Cn1nc(Cl)cc1C(=O)N1CCC(C(=O)c2nc3ccccc3s2)CC1`: the cytotoxicity at 70.5 h is 10.5%.

Take `COc1cccc([C@@]2(O)CC[C@@H]3CN(C(=O)c4cn(C)nc4C)C[C@@H]32)c1`: the cytotoxicity at 70.5 h amounted to 1.27%.

For `Cc1nc2cc(-c3nccn3C)nn2c(N2CCCC(CO)C2)c1C` (configuration not stated), the cytotoxicity at 70.5 h came to 2.86%.

`CC(C)N1CCCC1c1csc(N)n1` (configuration not stated): the cytotoxicity at 70.5 h is -1.44%.

Take `COc1cc(C(=O)NCC2(N(C)C)CCN(C)CC2)c2ccccc2n1`: the cytotoxicity at 70.5 h was determined as 0.627%.

For `Cc1ccc(OCCN2CCC(c3nc(C)n4c(C)csc34)CC2)cc1`, the cytotoxicity at 70.5 h was 3.59%.

Turning to `COc1ccc(CN(C)Cc2ccnc(C3CCCO3)n2)cc1` (configuration not stated), the cytotoxicity at 70.5 h was -2.06%.

Regarding `CN1CCOC(C)(C(=O)Nc2nccs2)C1` (configuration not stated), the cytotoxicity at 70.5 h is 40.2%.

Take `O=C1N[C@H]2OCCC[C@H]2[C@H](c2ccccc2C(=O)O)N1`: the cytotoxicity at 70.5 h stood at 13.9%.

As to `Cn1ccnc1CNC(=O)CCc1cccc(F)c1`, the cytotoxicity at 70.5 h was -9.01%.

As to `CCOc1ccc(CN2CCCC(c3cc4ncccc4[nH]3)C2)cc1` (configuration not stated), the cytotoxicity at 70.5 h was 6.95%.

As for `Fc1ccc(CN2CCCC(c3cc4ncccc4[nH]3)C2)cc1` (configuration not stated), the cytotoxicity at 70.5 h was 3.04%.

Regarding `Cc1c[nH]nc1C1CN(c2cnccn2)CCO1` (configuration not stated), the cytotoxicity at 70.5 h is -4.52%.

On to `Cc1cn[nH]c1C1CCCCN1C(=O)CCc1c(C)n[nH]c1C` (configuration not stated), for which the cytotoxicity at 70.5 h was -2.55%.

With `CCc1noc(C)c1C(=O)N1CCC(c2[nH]ncc2S(C)(=O)=O)C1` (configuration not stated), the cytotoxicity at 70.5 h was -4.87%.

Regarding `CN(CCC(=O)N1CCCC(Cc2cccnc2)C1)Cc1cccnc1` (configuration not stated), the cytotoxicity at 70.5 h was -6.27%.

Take `Cc1nc(-c2ccc(C(=O)O)cc2)cc(C2CCN(C(C)C)CC2)n1`: the cytotoxicity at 70.5 h was 12.2%.

`COc1cccc(CN2CC[C@H]3[C@@H](C2)[C@H](c2ccsc2)CN3C(C)=O)c1`: the cytotoxicity at 70.5 h amounted to 28.6%.

As for `Cc1ncc(C(=O)N2CCCC(Cc3nccs3)C2)cn1` (configuration not stated), the cytotoxicity at 70.5 h is -8.16%.

Turning to `Cn1cc(C(=O)N2CCCC(Cc3cnccn3)C2)cn1` (configuration not stated), the cytotoxicity at 70.5 h was -15.6%.

For the compound `CCCn1cc(C(=O)N2CCCC(Cc3nccs3)C2)cn1` (configuration not stated), the cytotoxicity at 70.5 h is -4.77%.

Turning to `CN(C)C(=O)CN1CCCCC1c1nc(N)ncc1-c1cccc(F)c1` (configuration not stated), the cytotoxicity at 70.5 h was found to be 34.4%.

In the case of `CC(=O)N1CCCCC1c1nc(N)ncc1-c1ccccc1` (configuration not stated), the cytotoxicity at 70.5 h is -24.9%.

With `O=C(c1ccncc1)N1CCC(c2nc(O)cc(-c3ccncc3)n2)C1` (configuration not stated), the cytotoxicity at 70.5 h is -12.6%.

With `CC(=O)N1CCC(c2ccnc(Nc3cncnc3)n2)C1` (configuration not stated), the cytotoxicity at 70.5 h is -32.6%.

As to `CC(=O)N1CCCC1c1cccc(Cc2ccc(F)cc2)n1` (configuration not stated), the cytotoxicity at 70.5 h was -14.3%.

Take `CC(=O)N1CCC(C(=O)c2cc(C)cnc2N)CC1`: the cytotoxicity at 70.5 h is -15.5%.

Take `Cc1nc(Nc2ncccn2)cc(C2CCCN2CC(C)C)n1` (configuration not stated): the cytotoxicity at 70.5 h turned out to be 43.1%.

Take `CN(C)C(=O)CN1CCCCC1c1nc(N)ncc1-c1ccccc1` (configuration not stated): the cytotoxicity at 70.5 h was -17.6%.

With `CC(C)n1c(C2CCCN(Cc3ccnn3C)C2)nc2ccccc21` (configuration not stated), the cytotoxicity at 70.5 h was -9.99%.

`Cc1n[nH]cc1C(=O)N1CCCC(n2nnc3cc(F)ccc32)C1` (configuration not stated): the cytotoxicity at 70.5 h was -12.2%.

`Cn1cc(CN2CCc3nc(-c4ccccn4)nc(O)c3C2)cn1`: the cytotoxicity at 70.5 h turned out to be 22.4%.

Turning to `CCn1ncc(CN2CCc3c(nc(-c4cccnc4)[nH]c3=O)C2)c1C`, the cytotoxicity at 70.5 h was -18.3%.

For `Cc1nn(C)c(C)c1-c1cncc(C2CCN(S(C)(=O)=O)CC2)n1`, the cytotoxicity at 70.5 h was -19.6%.

For the compound `CC(=O)N1CCCC(c2cnc(-c3c(C)nn(C)c3C)cn2)C1` (configuration not stated), the cytotoxicity at 70.5 h was -20.6%.

As to `CC(C)n1cc(C(=O)N2Cc3ccccc3OC3(CCOCC3)C2)cn1`, the cytotoxicity at 70.5 h came to 23.6%.

Regarding `OC1(Cn2ccc3ccncc32)CCN(Cc2ccccn2)CC1`, the cytotoxicity at 70.5 h is -2.48%.

On to `O=C(c1cccnc1)N1CCCC(c2cc(C(F)F)n3ncnc3n2)C1` (configuration not stated), for which the cytotoxicity at 70.5 h was -13.8%.

As for `c1cnc(-c2cnc(N3CCSCC3)nc2C2CCCO2)cn1` (configuration not stated), the cytotoxicity at 70.5 h is -16.8%.

Regarding `Cc1ccc(S(=O)(=O)N2C[C@@H]3C[C@@H](NC(=O)C(C)(C)C)[C@@H]3C2)cc1`, the cytotoxicity at 70.5 h was -16.5%.

On to `O=C(c1cnco1)N1C[C@@H]2CC[C@H](Oc3cccc(F)c3)[C@@H]2C1`, for which the cytotoxicity at 70.5 h is -3.26%.

Turning to `Cc1ncc(CNC(=O)CCc2cccc(F)c2)c(C2CCCN2C)n1` (configuration not stated), the cytotoxicity at 70.5 h was -2.51%.

For the compound `O=C(Cc1ccc(F)cc1)N1CCCCC1c1ccn2ccnc2n1` (configuration not stated), the cytotoxicity at 70.5 h was -12%.

In the case of `Cc1nccc(C2CN(Cc3cc[nH]n3)CCO2)n1` (configuration not stated), the cytotoxicity at 70.5 h is -15.2%.

`CC(=O)N1CCN([C@@H]2CC[C@@H](NC(=O)c3cncc(C)c3)[C@H]2O)CC1`: the cytotoxicity at 70.5 h was determined as 24%.

For `CC(=O)N1CCCC1c1ccc(-c2c(C)noc2C)cn1` (configuration not stated), the cytotoxicity at 70.5 h is -9.29%.

In the case of `CNC(=O)CCc1cc(C)nc(C2CCCN2)n1` (configuration not stated), the cytotoxicity at 70.5 h was -12.5%.

For the compound `Cc1noc(C)c1-c1cccc(CC2CCN(C(=O)CCC(=O)O)C2)n1` (configuration not stated), the cytotoxicity at 70.5 h is -11.7%.

Turning to `CCn1cc(CN2CC3CCCN3C[C@H]2C)c(C)n1` (some centres not stated), the cytotoxicity at 70.5 h was determined as 2.28%.

As to `CNC(=O)C1(CCCc2cccnc2)CCCCN1` (configuration not stated), the cytotoxicity at 70.5 h was -1.91%.

As for `Cc1ccccc1-c1cncc(C2CCN(C(=O)CN(C)C)CC2)n1`, the cytotoxicity at 70.5 h stood at 23.3%.

With `COCC(=O)N1CCC(c2cccc(Cc3ccc(F)cc3)n2)CC1`, the cytotoxicity at 70.5 h was -6.39%.

In the case of `CN(CCOCC1CC1)C(=O)Nc1ccc(C#N)c(Cl)c1`, the cytotoxicity at 70.5 h was -0.0375%.

Regarding `COC(=O)c1ccc(CN2CCC(c3n[nH]c(C)n3)CC2)s1`, the cytotoxicity at 70.5 h was -0.468%.

Turning to `CC(C)(C)n1ncc(NCCc2ccccc2C(F)(F)F)c(Cl)c1=O`, the cytotoxicity at 70.5 h came out at 33%.

Take `CCOCC(=O)Nc1cc(-c2cccc(F)c2F)n[nH]1`: the cytotoxicity at 70.5 h was -7.88%.

For the compound `CC(C)(C)n1ncc(NCC(O)c2ccc(F)c(F)c2)c(Cl)c1=O` (configuration not stated), the cytotoxicity at 70.5 h is -0.243%.

With `O=C1CC(C(=O)NCc2ccccc2Oc2ccccc2F)CCN1` (configuration not stated), the cytotoxicity at 70.5 h is -1.83%.

For the compound `CC(C)OCc1ccccc1CNC(=O)C(C)(C)C`, the cytotoxicity at 70.5 h turned out to be 0.195%.

On to `CN(CCOCC1CC1)C(=O)Nc1ccc([S+](C)[O-])c(F)c1` (configuration not stated), for which the cytotoxicity at 70.5 h is 21.5%.

As to `CN(CCOCC1CC1)C(=O)Nc1ccc([S+](C)[O-])cc1` (configuration not stated), the cytotoxicity at 70.5 h is -0.588%.

As for `COc1cccc(C(=O)NS(=O)(=O)c2cc(Cl)sc2Cl)c1OC(F)F`, the cytotoxicity at 70.5 h is -7.95%.

Turning to `N#CC1(NC(=O)COC(=O)Cc2cc(Cl)c3c(c2)OCCO3)CCCC1`, the cytotoxicity at 70.5 h was found to be 16.4%.

For the compound `CC(=O)Nc1ccc(CNCC(O)c2ccc(Cl)cc2)cc1` (configuration not stated), the cytotoxicity at 70.5 h was -5.19%.

For `CC(=O)Nc1ccc(CNCC(O)c2ccc(C)cc2)cc1` (configuration not stated), the cytotoxicity at 70.5 h is -8.81%.

Turning to `CN(C)c1ccnc(C2CCCN2)n1` (configuration not stated), the cytotoxicity at 70.5 h was -3.83%.

For `CC(Cn1cncc1-c1cnn(C2CCCCC2)c1)N1CCCCC1` (configuration not stated), the cytotoxicity at 70.5 h worked out at 25%.

On to `Fc1cccc(F)c1Cn1c(C2CCNCC2)cc2cccnc21`, for which the cytotoxicity at 70.5 h turned out to be 3.7%.

Turning to `COc1cccc(Nc2nc(C3CCNCC3)c3ccccn23)c1`, the cytotoxicity at 70.5 h was -2.27%.

Take `COc1cccc(CCC(=O)N2CCC[C@@H](N)[C@@H]2c2ccccc2F)c1`: the cytotoxicity at 70.5 h was -1.81%.

For the compound `COc1cccc([C@H]2CN(C(C)=O)[C@@H]3CCN(Cc4ccsc4)C[C@H]23)c1`, the cytotoxicity at 70.5 h is -4.18%.

Regarding `CNCC(=O)N1CC(c2cc(Nc3ncccn3)nc(C)n2)C1`, the cytotoxicity at 70.5 h was -20.3%.

Turning to `c1cnc2c(c1)cc([C@H]1CCCO1)n2CCN1CCCCC1`, the cytotoxicity at 70.5 h came to 20.3%.

For the compound `OC1(Cn2ccc3ncccc32)CCN(Cc2ccccn2)CC1`, the cytotoxicity at 70.5 h came out at 24.4%.

Consider `COc1ccccc1C(=O)N1Cc2cc(C)ccc2OCC1CN(C)C` (configuration not stated), for which the cytotoxicity at 70.5 h was -8.39%.

With `OC1CCN(Cc2c(C3CCCNC3)[nH]c3ncccc23)CC1` (configuration not stated), the cytotoxicity at 70.5 h is -22.4%.

As to `CC(C)C(=O)N1CCCC(c2cc(C(F)F)n3ncnc3n2)C1` (configuration not stated), the cytotoxicity at 70.5 h came out at 23.9%.

In the case of `c1cnc2c(c1)cc([C@H]1CCCO1)n2CCN1CCOCC1`, the cytotoxicity at 70.5 h is -27.8%.

Consider `COc1ccc(CN(Cc2cncn2C)CC2CCCO2)c(OC)c1` (configuration not stated), for which the cytotoxicity at 70.5 h is 4.29%.

As to `Cc1cc(C[C@@H]2CCC[C@H]2NCc2cc(C)c(O)c(C)c2)on1`, the cytotoxicity at 70.5 h came to 2.36%.

For the compound `CCc1ccc(CN(CCCn2ccnc2)Cc2ccc(C)s2)o1`, the cytotoxicity at 70.5 h was found to be 21.1%.

Turning to `Cc1cccc(CN(Cc2ccc(C)o2)C2CC(C)(C)NC(C)(C)C2)n1`, the cytotoxicity at 70.5 h was -9.61%.

Consider `Cc1ccc([C@]2(O)CC[C@H]3CN(Cc4cc(C)c(O)c(C)c4)C[C@H]32)nc1`, for which the cytotoxicity at 70.5 h amounted to 30.6%.

Turning to `O[C@]1(c2ccccn2)CC[C@@H]2CN(Cc3cccc4ncccc34)C[C@@H]21`, the cytotoxicity at 70.5 h was 15.3%.
